In patent US4335136A, “Anti-inflammatory 4,5-diaryl-α-(polyfluoroalkyl)-1H-pyrrole-2-methanamines” (E. I. Du Pont de Nemours and Company, priority 1981, dated 1982):

How the values were obtained:
[1] = test system: adjuvant-induced arthritis in rats; assay: Established Adjuvant-Induced Arthritis in Rats; assay type: in vivo, Lewis (Wistar) male rats; details: rat; for ED50: oral gavage once daily for 7 days (days 14-20), paw volume of uninjected left hind paw on day 21, ED50 % estimated by inspection, read-out: Adjuvant Arthritic ED 50; for Percent decrease from control mean paw volume (in parentheses after the ED50 bound): oral once daily for 7 days, presumably at the bounding dose
[2] = test system: phenylquinone writhing in mice; assay: Phenylquinone writhing test; assay type: in vivo, female white mice; details: Mus musculus, 0.5 h; fasted female mice, oral; phenylquinone i.p. 24 minutes later; observed for 10 minutes from 30 minutes after dosing; read-out: Analgesic Phenylquinone Writhing ED50
Experimental: PHENYLQUINONE WRITHING TEST
The phenylquinone writhing test, modified from Siegmund, et al., Proc. Soc. Exp. Biol. Med., 95, 729 (1957), was employed. A test compound suspended in 1% methylcellulose was given orally to fasted (17-21 hours) female white mice, 5-20 animals per double blind test. Aqueous (0.01% phenyl-p-benzoquinone) phenylquinone was injected intraperitoneally 24 minutes later using 0.20 ml per mouse. […] The effective analgesic dose for 50% of the mice (ED50) was calculated by the moving average method of Thompson, W. R., Bact. Rev., 11, 115-145 (1947).

## Cc1c(C(N)(C(F)(F)F)C(F)(F)F)[nH]c(-c2ccc(F)cc2)c1-c1ccc(F)cc1 [Example 8]
[1]
  ED50: 0.77 mg/kg
[2]
  ED50: > 108 mg/kg

## CN(C)c1ccc(-c2[nH]c(C(N)(C(F)(F)F)C(F)(F)F)cc2-c2ccc(F)cc2)cc1 [Example 9]
[1]
  ED50: 4.9 mg/kg
[2]
  ED50: > 108 mg/kg

## NC(c1cc(-c2ccc(F)cc2)c(-c2ccc(F)cc2)[nH]1)(C(F)(F)F)C(F)(F)Cl (stereo not shown) [Example 15]
[1]
  ED50: 0.7 mg/kg

## NC(c1cc(-c2ccccc2)c(-c2ccccc2)[nH]1)(C(F)(F)F)C(F)(F)F [Example 11]
[1]
  ED50: 20 mg/kg
[2]
  ED50: > 108 mg/kg

## NC(c1cc(-c2ccc(F)cc2)c(-c2ccc(F)cc2)[nH]1)C(F)(F)F (stereo not drawn) [Example 2, 4,5-Bis(4-fluorophenyl)-α-(trifluoromethyl)-1H-pyrrole-2-methanamine]
[1]
  ED50: > 25 mg/kg
[1]; 25 mg/kg
  Percent decrease from control mean paw volume (in parentheses after the ED50 bound): 29%

## CNC(c1cc(-c2ccc(F)cc2)c(-c2ccc(F)cc2)[nH]1)(C(F)(F)F)C(F)(F)F [Example 5, 4,5-Bis(4-fluorophenyl)-N-methyl-α,α-di(trifluoromethyl)-1H-pyrrole-2-methanamine]
[1]
  ED50: 0.8 mg/kg
[2]
  ED50: > 108 mg/kg

## COc1ccc(-c2cc(C(N)(C(F)(F)F)C(F)(F)F)[nH]c2-c2ccc(OC)cc2)cc1 [Example 4]
[1]
  ED50: 3.3 mg/kg
[2]
  ED50: 45 mg/kg

## NC(c1cc(-c2ccc(F)cc2)c(-c2ccc(F)cc2)[nH]1)(C(F)(F)F)C(F)(F)F [Example 1, 4,5-Bis(4-fluorophenyl)-α,α-bis(trifluoromethyl)-1H-pyrrole-2-methanamine]
[1]
  ED50: 0.45 mg/kg
[2]
  ED50: 27 mg/kg

## NC(c1cc(-c2ccc(F)cc2)c(-c2ccc(F)cc2)n1Cc1ccccc1)(C(F)(F)F)C(F)(F)F [Example 13]
[1]
  ED50: > 25 mg/kg
[1]; 25 mg/kg
  Percent decrease from control mean paw volume (in parentheses after the ED50 bound): 24%
[2]
  ED50: > 108 mg/kg

## Cc1ccc(-c2cc(C(N)(C(F)(F)F)C(F)(F)F)[nH]c2-c2ccc(C)cc2)cc1 [Example 7]
[1]
  ED50: > 9 mg/kg
[1]; 9 mg/kg
  Percent decrease from control mean paw volume (in parentheses after the ED50 bound): 45%
[2]
  ED50: > 108 mg/kg

## NC(c1cc(-c2ccc(F)cc2)c(-c2ccc(Br)cc2)[nH]1)(C(F)(F)F)C(F)(F)F [Example 6]
[1]
  ED50: 3.4 mg/kg
[2]
  ED50: > 108 mg/kg

## NC(c1cc(-c2ccc(Cl)cc2)c(-c2ccc(Cl)cc2)[nH]1)(C(F)(F)F)C(F)(F)F [Example 10]
[1]
  ED50: 4.4 mg/kg
[2]
  ED50: > 108 mg/kg

## NC(c1cc(-c2ccc(F)cc2)c(-c2cccnc2)[nH]1)(C(F)(F)F)C(F)(F)F [Example 12]
[1]
  ED50: 12.5 mg/kg
[2]
  ED50: > 108 mg/kg

## CNC(c1cc(-c2ccc(F)cc2)c(-c2ccc(F)cc2)n1C)(C(F)(F)F)C(F)(F)F [Example 14, 4,5-Bis(4-fluorophenyl)-N,1-dimethyl-α,α-di(trifluoromethyl)-1H-pyrrole-2-methanamine]
[1]
  ED50: 1 mg/kg
[2]
  ED50: > 108 mg/kg

## Cn1c(C(N)(C(F)(F)F)C(F)(F)F)cc(-c2ccc(F)cc2)c1-c1ccc(F)cc1 [Example 3]
[1]
  ED50: 2.6 mg/kg
[2]
  ED50: > 108 mg/kg
